Experimental data from article PMC5679651, “Complex antigen presentation pathway for an HLA-A*0201-restricted epitope from Chikungunya 6K protein” (PLoS Neglected Tropical Diseases, 2017).
Where two headings read alike, the source gives them in different places. Square brackets hold non-standard residues; d marks the D form. Ends that are not written are not given here. Peptide text beside a SMILES is read from it. * marks the point of attachment. Sta = CC(C)C[C@H](N)[C@@H](O)CC(=O)O; Isovaleryl = CC(C)CC(=O)*

Key:
[1] = biological target: HLA-A*0201 (Homo sapiens, UniProt P04439, /I218V/L300P/L318F/N151K/N90K/P208A/P217A/Q86G/Q94H/R138H/R169H/T345S); test: biochemical; format: binding; conditions: HLA-A*0201-transfected TAP-deficient RMA-S cells, peptide 2 h 26°C then 2 h 37°C, concentration range 0.001-100 μM, mAb PA2.1, flow cytometry, mean ± SD of four independent experiments, read-out: HLA-A*0201 Affinity values, EC50
[2] = tested on: CHIKV 6K51-59 epitope presentation by rVACV-CHIKV-infected HLA-A*0201+ DC; test: cells; format: cell-based, HLA-A*0201-transgenic mice
[3] = tested on: VACV D12I251-259 epitope presentation by infected HLA-A*0201+ DC; format: cell-based, HLA-A*0201-transgenic mice; conditions: for percentage of inhibition of recognition by VACV D12I251-259-specific CD8+ T cells: SD
[4] = biological target: HLA-A*0201 (Homo sapiens, UniProt P04439, D140Y/D185E/D98H/E176V/E277Q/G131W/G231S/I119V/I121R/I166T/I218V/L300P/L318F/N151K/N90K/P208A/P217A/Q86G/Q94H/R138H/R169H/T345S); test: biochemical; format: binding; conditions: HLA-A*0201-transfected TAP-deficient RMA-S cells; for binding to HLA-A*0201 (HLA-peptide surface complexes), in words: MHC-peptide complex stability assay
[5] = tested on: CHIKV 6K peptide-specific CD8+ T cell lines; format: cell-based, HLA-A*0201-transgenic mice; conditions: ICS
[6] = Mus musculus, T-cell, 5 h, read-out: percentage of inhibition of recognition by CHIKV 6K51-59-specific CD8+ T cells, SD

Row | Molecule | EC50 ([1]; SD) [µM] | effect on recognition by CHIKV 6K51-59-specific CD8+ T cell line, in words [2] | further results
1 | CC(C)C[C@H](NC(=O)[C@H](CC(C)C)NC(=O)[C@H](CCCNC(=N)N)NC(=O)[C@H](CC(C)C)NC(=O)[C@H](CS)NC(=O)[C@H](CC(N)=O)NC(=O)[C@H](CS)NC(=O)[C@H](CC(C)C)NC(=O)[C@@H](N)C(C)C)C(=O)O [6K 31–39] (H-VLCNCLRLL-OH) | 5 ± 3 | – | –
2 | CC(C)C[C@H](NC(=O)[C@@H](NC(=O)[C@H](CCCCN)NC(=O)[C@H](CS)NC(=O)[C@H](CS)NC(=O)[C@H](CS)NC(=O)[C@@H]1CCCN1C(=O)[C@H](CC(C)C)NC(=O)[C@H](CC(C)C)NC(=O)[C@@H](N)CCCNC(=N)N)[C@@H](C)O)C(=O)O [6K 37–46] (H-RLLPCCCKTL-OH) | 8 ± 6 | – | –
3 | CC(C)C[C@H](NC(=O)[C@@H](O)[C@H](N)Cc1ccccc1)C(=O)O [BEST, Bestatin] | – | unaffected | –
4 | C[C@H]1CCC/C=C/[C@@H]2C[C@H](O)C[C@H]2[C@H](O)/C=C/C(=O)O1 [BFA, Brefeldin] | – | completely inhibited | effect on VACV D12I251-259 epitope presentation, in words [3]: complete inhibition
5 | CCN(CC)CCCC(C)Nc1ccnc2cc(Cl)ccc12 (stereo not drawn) [CQ, Chloroquine] | – | – | inhibition at 50 µM [2, 6]: 69 ± 19%
6 | CC(C)C[C@H](NC(=O)[C@H]1O[C@@H]1C(=O)O)C(=O)NCCCCN=C(N)N [E64] | – | None of these inhibitors affected | –
7 | O=C(O)CN(CCN(CC(=O)O)CC(=O)O)CC(=O)O [EDTA, Ethylenediaminetetraacetic acid] | – | unaffected | –
8 | CC(=O)N[C@@H](CSC(=O)[C@]1([C@@H](O)C(C)C)NC(=O)[C@H](C)[C@@H]1O)C(=O)O [LC, Lactacystin] | – | – | inhibition at 10 µM [2, 6]: 83 ± 3%; effect on VACV D12I251-259 epitope presentation, in words [3]: lesser effect
9 | CC(=O)N[C@@H](CC(C)C)C(=O)N[C@@H](CC(C)C)C(=O)N[C@H](C=O)CCCNC(=N)N [LEU, Leupeptin] | – | None of these inhibitors affected | –
10 | CC(C)C[C@H](N)CS [Leu-SH, Leucinthiol] | – | – | percentage of inhibition of recognition by CHIKV 6K51-59-specific CD8+ T cells ([2]; SD): 91 ± 13%; effect on VACV D12I251-259 epitope presentation, in words [3]: lesser effect
11 | CC(C)CC(=O)N[C@H](C(=O)N[C@H](C(=O)N[C@@H](CC(C)C)[C@@H](O)CC(=O)N[C@@H](C)C(=O)N[C@@H](CC(C)C)[C@@H](O)CC(=O)O)C(C)C)C(C)C [PEPST, Pepstatin] (Isovaleryl-VV[Sta]A[Sta]-OH) | – | None of these inhibitors affected | –
12 | c1cnc2c(c1)ccc1cccnc12 [PHE, 1–10 Phenanthroline] | – | None of these inhibitors affected | –
13 | O=S(=O)(F)Cc1ccccc1 [PMSF, Phenylmethane sulfonylfluoride] | – | None of these inhibitors affected | –
14 | COc1ccc(C[C@H](N)C(=O)N[C@H]2[C@@H](O)[C@H](n3cnc4c(N(C)C)ncnc43)O[C@@H]2CO)cc1 [PURO, Puromycin] | – | – | inhibition at 0.5 µg/mL [2, 6]: 47 ± 21%; percentage of inhibition of recognition by VACV D12I251-259-specific CD8+ T cells [3]: 4 ± 6%
15 | ALIPLAALI [6K 22–30] | 33 ± 28 | – | –
16 | ALIPLAALIV [6K 22–31] | 21 ± 20 | – | –
17 | ALIVLCNCL [6K 28–36] | – | – | binding to HLA-A*0201 (HLA-peptide surface complexes), in words [4]: not detected; HLA-A*0201 Affinity values, EC50 ([4]; peptide 2 h 26°C then 2 h 37°C, concentration range 0.001-100 μM, mAb PA2.1, flow cytometry, mean ± SD of four independent experiments): No binding
18 | Decanoyl-Arg-Val-Lys-Arg-chloromethylketone [dec-RVKR] | – | – | percentage of inhibition of recognition by CHIKV 6K51-59-specific CD8+ T cells ([2]; SD): 43 ± 20%; percentage of inhibition of recognition by VACV D12I251-259-specific CD8+ T cells [3]: 4 ± 6%
19 | ILDRIITNA [A10L 688-696] | 3 ± 3 | – | –
20 | QALIPLAAL [6K 21–29] | – | – | EC50 [1]: > 200 µM; binding to HLA-A*0201 (HLA-peptide surface complexes), in words [4]: residual; specific recognition of peptide-pulsed DC by CTL line, in words [5]: no specific recognition
21 | TLAFLAVMSV [6K 45–54] | 1 ± 0.5 | – | –
22 | VMSVGAHTV [6K 51–59] | 9 ± 1 | – | –
